Assays:
Format in all cases: biochemical
B-Raf(h) = biological target: T1, B-Raf(h) (Homo sapiens, UniProt P15056); assay: kinase profile, radiometric assay, B-Raf
T1 construct: purchased Eurofins, Dundee, Scotland
Method: (§1) Enzymatic biochemical activities were evaluated in radiometric protein kinase assays (Eurofins, Dundee, Scotland). Kinases are incubated with buffer, substrate and [γ-^33P]-ATP (specific activity approx. 500 cpm/pmol, concentration as required). The reaction is initiated by the addition of the MgATP mix. After incubation for 40 minutes at room temperature, the reaction is stopped by the addition of 3% phosphoric acid solution. 10 μL of the reaction is then spotted onto a P30 filtermat and washed three times for 5 minutes in 75 mM phosphoric acid and once in methanol prior to drying and scintillation counting.
(§2) All compounds are prepared to 50× final assay concentration in 100% DMSO. Positive control wells contain all components of the reaction with 2% DMSO. Blank wells contain all components of the reaction, with a reference inhibitor replacing the compound of interest. Each kinase is assigned a standard assay concentration of ATP within 20 μM of its apparent KM. Compounds were screened at 1 μM in duplicate or tested at 10 concentrations at half log dilution starting from 10 μM in singlicate. Dose response curves were fitted with four parameter logistic curve to obtain IC50 values. The average coefficient of variation (CV) of the conducted assay is 4.4%.

Fms(h) = biological target: T2, Fms(h) (Homo sapiens, UniProt P07333); assay: kinase profile, radiometric assay, Fms
T2 construct: purchased Eurofins, Dundee, Scotland
T2 sequence (P07333 20-972): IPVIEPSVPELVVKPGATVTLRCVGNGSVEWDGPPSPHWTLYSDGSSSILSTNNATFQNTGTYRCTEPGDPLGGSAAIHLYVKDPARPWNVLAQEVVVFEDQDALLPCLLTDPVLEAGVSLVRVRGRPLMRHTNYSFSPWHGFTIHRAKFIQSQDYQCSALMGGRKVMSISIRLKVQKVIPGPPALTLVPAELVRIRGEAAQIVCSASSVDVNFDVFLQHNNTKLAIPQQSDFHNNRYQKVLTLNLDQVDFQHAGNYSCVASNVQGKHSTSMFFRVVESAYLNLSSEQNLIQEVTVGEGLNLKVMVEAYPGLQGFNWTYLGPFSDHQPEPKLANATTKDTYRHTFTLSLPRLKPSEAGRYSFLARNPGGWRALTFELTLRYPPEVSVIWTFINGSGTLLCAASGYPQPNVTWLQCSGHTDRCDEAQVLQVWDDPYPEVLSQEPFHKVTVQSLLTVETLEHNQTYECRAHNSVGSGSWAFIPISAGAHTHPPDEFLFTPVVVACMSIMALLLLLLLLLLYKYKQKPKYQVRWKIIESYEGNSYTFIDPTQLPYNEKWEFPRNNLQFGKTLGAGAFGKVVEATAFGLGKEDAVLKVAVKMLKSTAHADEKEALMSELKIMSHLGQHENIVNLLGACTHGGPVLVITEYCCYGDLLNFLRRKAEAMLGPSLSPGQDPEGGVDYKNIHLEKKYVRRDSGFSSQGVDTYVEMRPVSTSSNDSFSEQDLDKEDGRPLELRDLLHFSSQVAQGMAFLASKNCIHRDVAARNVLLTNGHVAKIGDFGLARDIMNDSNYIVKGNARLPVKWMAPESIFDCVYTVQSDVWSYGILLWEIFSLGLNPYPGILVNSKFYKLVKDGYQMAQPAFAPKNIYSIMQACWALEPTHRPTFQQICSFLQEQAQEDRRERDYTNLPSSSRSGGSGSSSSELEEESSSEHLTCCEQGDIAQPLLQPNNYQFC
Method: as §1, §2

KDR(h) = biological target: T3, KDR(h) (Homo sapiens, UniProt P35968); assay: kinase profile, radiometric assay, KDR
T3 construct: purchased Eurofins, Dundee, Scotland
T3 sequence (P35968 20-1356): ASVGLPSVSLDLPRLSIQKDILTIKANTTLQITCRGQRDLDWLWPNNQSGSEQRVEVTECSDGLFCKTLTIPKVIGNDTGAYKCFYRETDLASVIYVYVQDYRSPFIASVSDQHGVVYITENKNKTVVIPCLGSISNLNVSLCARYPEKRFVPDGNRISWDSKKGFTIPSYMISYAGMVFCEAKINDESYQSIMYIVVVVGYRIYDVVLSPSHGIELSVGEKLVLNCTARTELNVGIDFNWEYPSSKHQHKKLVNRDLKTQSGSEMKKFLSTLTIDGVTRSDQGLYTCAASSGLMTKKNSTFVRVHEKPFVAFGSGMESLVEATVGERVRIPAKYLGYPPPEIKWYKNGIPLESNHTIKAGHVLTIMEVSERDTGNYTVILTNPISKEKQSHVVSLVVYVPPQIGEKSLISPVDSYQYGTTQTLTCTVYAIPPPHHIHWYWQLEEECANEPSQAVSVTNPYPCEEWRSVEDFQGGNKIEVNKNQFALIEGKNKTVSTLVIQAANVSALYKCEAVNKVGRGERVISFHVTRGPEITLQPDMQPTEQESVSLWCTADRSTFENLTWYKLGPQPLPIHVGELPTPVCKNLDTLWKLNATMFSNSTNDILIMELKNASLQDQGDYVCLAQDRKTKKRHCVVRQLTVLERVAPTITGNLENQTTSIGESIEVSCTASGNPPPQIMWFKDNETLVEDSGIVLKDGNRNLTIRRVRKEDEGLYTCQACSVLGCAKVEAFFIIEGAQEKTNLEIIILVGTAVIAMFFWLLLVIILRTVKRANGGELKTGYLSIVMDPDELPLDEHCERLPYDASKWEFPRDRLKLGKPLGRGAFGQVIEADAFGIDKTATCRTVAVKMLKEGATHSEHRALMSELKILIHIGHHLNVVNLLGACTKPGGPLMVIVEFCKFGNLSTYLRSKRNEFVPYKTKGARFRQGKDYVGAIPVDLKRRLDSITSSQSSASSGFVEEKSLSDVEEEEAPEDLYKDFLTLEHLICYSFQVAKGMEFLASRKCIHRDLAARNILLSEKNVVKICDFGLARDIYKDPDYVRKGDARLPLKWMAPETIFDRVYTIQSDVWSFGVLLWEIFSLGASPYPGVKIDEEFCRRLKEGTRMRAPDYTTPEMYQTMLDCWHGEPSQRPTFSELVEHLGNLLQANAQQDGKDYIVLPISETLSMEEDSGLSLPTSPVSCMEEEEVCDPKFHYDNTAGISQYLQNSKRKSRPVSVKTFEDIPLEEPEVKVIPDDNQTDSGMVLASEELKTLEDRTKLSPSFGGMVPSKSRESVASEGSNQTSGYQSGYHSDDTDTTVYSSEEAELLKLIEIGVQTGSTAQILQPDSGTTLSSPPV
Method: as §1, §2

JAK3(h) = biological target: T4, JAK3(h) (Homo sapiens, UniProt P52333); assay: kinase profile, radiometric assay, JAK3
T4 construct: purchased Eurofins, Dundee, Scotland
T4 sequence (P52333 1-1124): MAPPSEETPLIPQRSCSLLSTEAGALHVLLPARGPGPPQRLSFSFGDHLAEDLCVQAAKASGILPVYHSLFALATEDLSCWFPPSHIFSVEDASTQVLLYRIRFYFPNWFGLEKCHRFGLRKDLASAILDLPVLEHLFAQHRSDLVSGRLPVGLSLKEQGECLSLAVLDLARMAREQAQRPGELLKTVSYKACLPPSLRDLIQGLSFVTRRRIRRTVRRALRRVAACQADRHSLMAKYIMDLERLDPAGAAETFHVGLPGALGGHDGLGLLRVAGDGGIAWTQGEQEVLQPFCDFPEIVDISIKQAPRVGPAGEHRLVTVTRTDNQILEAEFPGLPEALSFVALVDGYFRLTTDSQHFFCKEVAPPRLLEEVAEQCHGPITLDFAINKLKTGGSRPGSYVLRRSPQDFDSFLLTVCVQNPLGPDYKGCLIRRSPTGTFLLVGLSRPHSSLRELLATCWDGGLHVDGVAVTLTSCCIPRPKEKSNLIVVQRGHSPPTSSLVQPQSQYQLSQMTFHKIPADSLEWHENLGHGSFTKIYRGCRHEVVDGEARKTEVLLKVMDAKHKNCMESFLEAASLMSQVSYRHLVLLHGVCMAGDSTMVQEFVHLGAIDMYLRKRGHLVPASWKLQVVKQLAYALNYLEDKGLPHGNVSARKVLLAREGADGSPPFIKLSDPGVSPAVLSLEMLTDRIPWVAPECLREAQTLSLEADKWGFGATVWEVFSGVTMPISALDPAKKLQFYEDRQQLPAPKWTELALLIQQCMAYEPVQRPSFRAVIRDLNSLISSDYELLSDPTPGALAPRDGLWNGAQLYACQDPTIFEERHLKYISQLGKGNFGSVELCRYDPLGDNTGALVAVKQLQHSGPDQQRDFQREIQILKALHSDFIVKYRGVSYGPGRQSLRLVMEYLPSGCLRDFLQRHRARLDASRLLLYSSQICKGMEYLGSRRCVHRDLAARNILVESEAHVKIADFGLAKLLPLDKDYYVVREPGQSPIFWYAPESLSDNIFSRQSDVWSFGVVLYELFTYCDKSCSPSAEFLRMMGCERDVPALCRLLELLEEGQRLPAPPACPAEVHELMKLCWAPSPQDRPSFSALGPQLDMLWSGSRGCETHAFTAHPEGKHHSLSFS
Method: as §1, §2

Src(1-530)(h) = biological target: T5, Src(1-530)(h) (Homo sapiens, UniProt P12931); assay: kinase profile, radiometric assay, Src(1-530)
T5 construct: Src(1-530)
T5 sequence (P12931 1-530): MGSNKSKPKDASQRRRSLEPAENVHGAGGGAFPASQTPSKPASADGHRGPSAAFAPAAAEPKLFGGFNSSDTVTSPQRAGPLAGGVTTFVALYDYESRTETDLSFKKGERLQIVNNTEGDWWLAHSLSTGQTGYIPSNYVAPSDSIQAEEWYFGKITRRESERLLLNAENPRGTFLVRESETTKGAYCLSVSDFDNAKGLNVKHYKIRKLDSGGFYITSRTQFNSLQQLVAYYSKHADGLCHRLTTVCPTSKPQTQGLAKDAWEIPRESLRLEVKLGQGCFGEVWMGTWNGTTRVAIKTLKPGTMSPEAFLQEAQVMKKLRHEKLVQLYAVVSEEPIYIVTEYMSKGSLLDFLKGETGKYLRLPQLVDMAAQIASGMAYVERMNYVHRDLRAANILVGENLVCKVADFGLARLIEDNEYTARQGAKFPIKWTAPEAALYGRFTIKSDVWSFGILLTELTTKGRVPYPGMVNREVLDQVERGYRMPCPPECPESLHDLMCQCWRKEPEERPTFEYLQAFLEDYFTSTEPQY
Method: as §1, §2

JAK2(h) = biological target: T6, JAK2(h) (Homo sapiens, UniProt O60674); assay: kinase profile, radiometric assay, JAK2
T6 construct: purchased Eurofins, Dundee, Scotland
Method: as §1, §2

CLK2(h) = biological target: T7, CLK2(h) (Homo sapiens, UniProt P49760); assay: radiometric protein kinase assay, CLK2; conditions: enzyme inhibition, ATP 10 μM
T7 construct: purchased Eurofins, Dundee, Scotland
T7 sequence (P49760 whole entry): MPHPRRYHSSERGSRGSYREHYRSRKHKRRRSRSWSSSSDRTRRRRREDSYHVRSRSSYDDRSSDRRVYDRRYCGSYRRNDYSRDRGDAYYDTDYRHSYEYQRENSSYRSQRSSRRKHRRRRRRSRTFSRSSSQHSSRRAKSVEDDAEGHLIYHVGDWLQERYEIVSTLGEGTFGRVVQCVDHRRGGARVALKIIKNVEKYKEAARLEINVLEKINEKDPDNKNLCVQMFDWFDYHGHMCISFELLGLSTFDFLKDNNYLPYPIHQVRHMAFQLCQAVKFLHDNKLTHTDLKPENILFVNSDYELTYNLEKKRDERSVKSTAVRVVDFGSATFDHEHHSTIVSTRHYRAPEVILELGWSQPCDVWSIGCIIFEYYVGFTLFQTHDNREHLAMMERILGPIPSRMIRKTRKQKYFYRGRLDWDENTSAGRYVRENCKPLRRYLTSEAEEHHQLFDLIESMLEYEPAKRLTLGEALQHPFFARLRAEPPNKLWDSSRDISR
Method: as §1, §2

MEK1(h) = biological target: T8, MEK1(h) (Homo sapiens, UniProt Q02750); assay: kinase profile, radiometric assay, MEK1
T8 construct: purchased Eurofins, Dundee, Scotland
T8 sequence (Q02750 whole entry): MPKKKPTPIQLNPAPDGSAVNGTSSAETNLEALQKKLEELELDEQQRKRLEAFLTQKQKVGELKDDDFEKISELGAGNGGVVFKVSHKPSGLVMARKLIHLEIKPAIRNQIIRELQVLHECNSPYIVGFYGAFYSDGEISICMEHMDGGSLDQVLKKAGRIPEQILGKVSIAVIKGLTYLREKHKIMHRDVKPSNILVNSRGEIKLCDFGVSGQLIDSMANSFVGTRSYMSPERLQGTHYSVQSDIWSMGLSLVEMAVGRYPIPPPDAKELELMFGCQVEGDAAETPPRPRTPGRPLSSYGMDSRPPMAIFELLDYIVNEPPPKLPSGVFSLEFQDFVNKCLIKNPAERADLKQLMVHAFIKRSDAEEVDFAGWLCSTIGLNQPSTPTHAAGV
Method: as §1, §2

EGFR(h) = biological target: T9, EGFR(h) (Homo sapiens, UniProt P00533); assay: kinase profile, radiometric assay, EGFR
T9 construct: purchased Eurofins, Dundee, Scotland
Method: as §1, §2

Abl(h) = biological target: T10, Abl(h) (Homo sapiens, UniProt P00519); assay: kinase profile, radiometric assay, Abl
T10 construct: purchased Eurofins, Dundee, Scotland
Method: as §1, §2

Aurora-A(h) = biological target: T11, Aurora-A(h) (Homo sapiens, UniProt O14965); assay: kinase profile, radiometric assay, Aurora-A
T11 construct: purchased Eurofins, Dundee, Scotland
T11 sequence (O14965 1-403): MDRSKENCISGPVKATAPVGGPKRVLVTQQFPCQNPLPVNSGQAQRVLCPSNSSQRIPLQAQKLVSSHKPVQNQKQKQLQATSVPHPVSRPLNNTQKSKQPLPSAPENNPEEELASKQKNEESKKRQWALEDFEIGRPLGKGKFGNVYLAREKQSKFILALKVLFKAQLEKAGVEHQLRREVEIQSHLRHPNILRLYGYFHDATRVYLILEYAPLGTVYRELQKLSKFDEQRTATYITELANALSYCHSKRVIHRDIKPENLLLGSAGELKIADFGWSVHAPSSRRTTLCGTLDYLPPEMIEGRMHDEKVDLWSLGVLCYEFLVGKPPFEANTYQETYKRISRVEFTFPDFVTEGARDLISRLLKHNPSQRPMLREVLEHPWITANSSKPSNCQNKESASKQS
Method: as §1, §2

JNK1α1(h) = biological target: T12, JNK1α1(h) (Homo sapiens, UniProt P45983); assay: kinase profile, radiometric assay, JNK1α1
T12 construct: purchased Eurofins, Dundee, Scotland
T12 sequence (P45983 1-384 isoform P45983-2): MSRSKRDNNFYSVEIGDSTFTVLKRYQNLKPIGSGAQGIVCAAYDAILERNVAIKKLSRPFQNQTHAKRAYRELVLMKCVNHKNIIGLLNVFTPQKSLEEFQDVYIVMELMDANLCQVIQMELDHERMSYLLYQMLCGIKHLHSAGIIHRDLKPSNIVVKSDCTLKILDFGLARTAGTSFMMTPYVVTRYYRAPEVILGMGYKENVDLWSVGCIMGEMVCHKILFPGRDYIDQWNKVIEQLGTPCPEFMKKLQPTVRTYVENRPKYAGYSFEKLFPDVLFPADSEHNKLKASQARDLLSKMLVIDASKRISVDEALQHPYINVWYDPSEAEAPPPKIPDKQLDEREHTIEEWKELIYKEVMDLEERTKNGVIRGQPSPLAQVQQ
Method: as §1, §2

T1 sequence (P15056 whole entry): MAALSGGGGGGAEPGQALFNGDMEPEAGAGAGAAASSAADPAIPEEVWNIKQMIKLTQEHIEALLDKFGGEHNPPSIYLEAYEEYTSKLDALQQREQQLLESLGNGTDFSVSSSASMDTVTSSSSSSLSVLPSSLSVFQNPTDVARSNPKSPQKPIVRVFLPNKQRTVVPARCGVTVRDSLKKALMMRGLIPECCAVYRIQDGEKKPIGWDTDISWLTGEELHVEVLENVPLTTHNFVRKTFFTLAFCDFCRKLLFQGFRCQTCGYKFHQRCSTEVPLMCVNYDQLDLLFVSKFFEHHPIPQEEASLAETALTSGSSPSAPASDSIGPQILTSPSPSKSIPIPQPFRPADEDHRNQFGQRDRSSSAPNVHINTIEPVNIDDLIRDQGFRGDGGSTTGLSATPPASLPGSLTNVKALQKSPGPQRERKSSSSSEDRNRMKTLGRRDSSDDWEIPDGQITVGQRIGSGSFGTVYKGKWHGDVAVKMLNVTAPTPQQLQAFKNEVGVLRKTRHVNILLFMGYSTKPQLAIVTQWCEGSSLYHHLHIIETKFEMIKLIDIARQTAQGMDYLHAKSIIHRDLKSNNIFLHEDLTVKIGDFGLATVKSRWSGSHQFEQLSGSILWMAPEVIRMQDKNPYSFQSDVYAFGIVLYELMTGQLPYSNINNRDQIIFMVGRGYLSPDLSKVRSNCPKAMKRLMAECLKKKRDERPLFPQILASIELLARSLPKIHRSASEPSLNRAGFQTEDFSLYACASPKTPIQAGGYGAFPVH

CC(C)n1cnc2c(Nc3cc(N)cc(Cl)c3)nc(NC3CCCCC3N)nc21 (racemic) [Compound 14, Racemic N^6-Cis-(3-Amino-5-Chlorophenyl)-N^2-(2-Aminocyclohexyl)-9-Isopropyl-9H-Purine-2,6-Diamine]
inhibition at 1 µM (B-Raf(h)): 5%
inhibition at 1 µM (Fms(h)): 9%
inhibition at 1 µM (KDR(h)): 4%
inhibition at 1 µM (JAK3(h)): 0%
inhibition at 1 µM (Src(1-530)(h)): 78%
inhibition at 1 µM (JAK2(h)): 8%
IC50 (CLK2(h)): 16 nM
inhibition at 1 µM (MEK1(h)): 6%
inhibition at 1 µM (EGFR(h)): -1%
inhibition at 1 µM (Abl(h)): 8%
inhibition at 1 µM (Aurora-A(h)): 13%
inhibition at 1 µM (JNK1α1(h)): -6%

CC(C)n1cnc2c(Nc3cccc(Cl)c3)nc(N[C@H]3CCCC[C@@H]3N)nc21 [Compound 8, N^2-((1S,2S)-2-Aminocyclohexyl)-V-(3-Chlorophenyl)-9-Isopropyl-9H-Purine-2,6-Diamine]
inhibition at 1 µM (B-Raf(h)): 10%
inhibition at 1 µM (Fms(h)): -1%
inhibition at 1 µM (KDR(h)): 16%
inhibition at 1 µM (JAK3(h)): 0%
inhibition at 1 µM (Src(1-530)(h)): 22%
inhibition at 1 µM (JAK2(h)): -6%
IC50 (CLK2(h)): 16 nM
inhibition at 1 µM (MEK1(h)): 10%
inhibition at 1 µM (EGFR(h)): -6%
inhibition at 1 µM (Abl(h)): -2%
inhibition at 1 µM (Aurora-A(h)): 4%
inhibition at 1 µM (JNK1α1(h)): 3%

CC(C)n1cnc2c(Nc3cccc(Cl)c3)nc(N[C@@H]3CCCC[C@@H]3N)nc21 [Compound 9, N^2-((1R,2S)-2-Aminocyclohexyl)-N^6-(3-Chlorophenyl)-9-Isopropyl-9H-Purine-2,6-Diamine]
inhibition at 1 µM (B-Raf(h)): 21%
inhibition at 1 µM (Fms(h)): -16%
inhibition at 1 µM (KDR(h)): -6%
inhibition at 1 µM (JAK3(h)): 4%
inhibition at 1 µM (Src(1-530)(h)): 69%
inhibition at 1 µM (JAK2(h)): 2%
IC50 (CLK2(h)): 11 nM
inhibition at 1 µM (MEK1(h)): 8%
inhibition at 1 µM (EGFR(h)): 3%
inhibition at 1 µM (Abl(h)): 2%
inhibition at 1 µM (Aurora-A(h)): -5%
inhibition at 1 µM (JNK1α1(h)): -1%

Source: patent US10722515B2, “Dual CLK/CDK1 inhibitors for cancer treatment” (SRI INTERNATIONAL, priority 2016, dated 2020)
